From patent publication US8003658B2, “Quinazoline derivatives for inhibiting cancer cell growth and method for the preparation thereof” (Hanmi Holdings Co., Ltd., priority 2004, dated 2011)
Where two headings read alike, the source gives them in different places.

Assays:
A431 (ATCC: CRL-1555) = assay: Test of cancer cell growth inhibition (SRB), A431; conditions: read-out: IC50 A431
SK-Br3 (ATCC: HTB-30) = assay: Test of cancer cell growth inhibition (SRB), SK-Br3; conditions: read-out: IC50 SK-Br-3
[1] = EGFR overexpressed A431, 72 hours, SRB
[2] = Erb-B2 overexpressed SK-Br3, 72 hours, SRB

Row | IC50 (A431 (ATCC: CRL-1555); Homo sapiens, A-431, 72 h) [nM] | IC50 (SK-Br3 (ATCC: HTB-30); Homo sapiens, SK-BR-3, 72 h) [nM] | IC50 (A431 (ATCC: CRL-1555); [1]) [nM] | IC50 (SK-Br3 (ATCC: HTB-30); [2]) [nM] | Compound
1 | 88 | 25 |  |  | C=CC(=O)N1CCCCC1C(=O)Nc1cc2c(Nc3ccc(OCc4ccccn4)c(Cl)c3)ncnc2cc1OC (stereo not shown) [Example 196, 1-acryloyl-piperidine-2-carboxylic acid {4-[3-chloro-4-(pyridin-2-ylmethoxy)-phenylamino]-7-methoxy-quinazolin-6-yl}-amide]
2 | 145 | 96 |  |  | C=CC(=O)N1CCC1C(=O)Nc1cc2c(Nc3ccc(OCc4ccccn4)c(Cl)c3)ncnc2cc1OCC (stereo not shown) [Example 199, 1-acryloyl-azetidine-2-carboxylic acid {4-[3-chloro-4-(pyridin-2-ylmethoxy)-phenylamino]-7-ethoxy-quinazolin-6-yl}-amide]
3 | ≥ 10000 | 4520 |  |  | C=CC(=O)N1CCC[C@H]1C(=O)Nc1cc2c(Nc3ccc(OCc4ccccn4)c(Cl)c3)ncnc2cc1OCC1CC1 [Example 172, (2S)-1-acryloyl-pyrrolidine-2-carboxylic acid {4-[3-chloro-4-(pyridin-2-ylmethoxy)-phenylamino]-7-cyclopropylmethoxy-quinazolin-6-yl}-amide]
4 | 44 | 3 |  |  | C=CC(=O)N1CCC[C@H]1C(=O)Nc1cc2c(Nc3ccc(OCc4cccnc4)c(Cl)c3)ncnc2cc1OCCCN1CCOCC1 [Example 209, (2S)-1-acryloyl-pyrrolidine-2-carboxylic acid {4-[3-chloro-4-(pyridin-3-ylmethoxy)-phenylamino]-7-(3-morpholin-4-yl-propoxy)-quinazolin-6-yl}-amide]
5 | 49 | 12 |  |  | C=CC(=O)N[C@H](C(=O)Nc1ccc2ncnc(Nc3ccc(OCc4ccccn4)c(Cl)c3)c2c1)C(C)C [Example 224, (2S)-2-acryloylamino-N-{4-[3-chloro-4-(pyridin-2-ylmethoxy)-phenylamino]-quinazolin-6-yl}-3-methyl-butyramide]
6 |  | 13 | 218 |  | C=CC(=O)N1CCC1C(=O)Nc1ccc2ncnc(Nc3ccc(OCc4ccccn4)c(Cl)c3)c2c1 (stereo not shown) [Example 181, 1-acryloyl-azetidine-2-carboxylic acid {4-[3-chloro-4-(pyridin-2-ylmethoxy)-phenylamino]-quinazolin-6-yl}-amide]
7 | 1420 | 114 |  |  | C=CC(=O)N1CCC[C@H]1C(=O)Nc1cc2c(Nc3ccc(OCc4ccccn4)c(Cl)c3)ncnc2cc1N(C)C [Example 184, (2S)-1-acryloyl-pyrrolidine-2-carboxylic acid {4-[3-chloro-4-(pyridin-2-ylmethoxy)-phenylamino]-7-dimethylamino-quinazolin-6-yl}-amide]
8 | 56 | 3 |  |  | C=CC(=O)N(C)[C@@H](C)C(=O)Nc1cc2c(Nc3ccc(OCc4ccccn4)c(Cl)c3)ncnc2cc1OC [Example 191, (1S)—N-(1-{4-[3-chloro-4-(pyridin-2-ylmethoxy)-phenylamino]-7-methoxy-quinazolin-6-ylcarbamoyl}ethyl)-N-methyl-acrylamide]

Second part, the compound before the results:

Row | Compound | IC50 (A431 (ATCC: CRL-1555); Homo sapiens, A-431, 72 h) [nM] | IC50 (SK-Br3 (ATCC: HTB-30); Homo sapiens, SK-BR-3, 72 h) [nM] | IC50 (A431 (ATCC: CRL-1555); [1]) [nM] | IC50 (SK-Br3 (ATCC: HTB-30); [2]) [nM]
9 | O=C(C=Cc1ccccc1)NCCC(=O)Nc1ccc2ncnc(Nc3ccc(OCc4cccc(F)c4)c(Cl)c3)c2c1 [Example 26, N-(2-{4-[3-chloro-4-(3-fluoro-benzyloxy)-phenylamino]-quinazolin-6-ylcarbamoyl}-ethyl)-3-phenyl-acrylamide] | 801 | 872 |  | 
10 | O=C(CCNC(=O)NCc1ccco1)Nc1ccc2ncnc(Nc3ccc(OCc4cccc(F)c4)c(Cl)c3)c2c1 [Example 125, N-{4-[3-chloro-4-(3-fluoro-benzyloxy)-phenylamino]-quinazolin-6-yl}-3-(3-furan-2-ylmethyl-ureido)-propionamide] | 272 | 83 |  | 
11 | COCC(=O)Nc1ccsc1C(=O)Nc1ccc2ncnc(Nc3ccc(OCc4cccc(F)c4)c(Cl)c3)c2c1 [Example 48, 3-(2-methoxy-acetylamino)-thiophene-2-carboxylic acid {4-[3-chloro-4-(3-fluoro-benzyloxy)-phenylamino]-quinazolin-6-yl}-amide] | 828 | 131 |  | 
12 | C=CC(=O)NCCC(=O)N(CC)c1ccc2ncnc(Nc3ccc(OCc4cccc(F)c4)c(Cl)c3)c2c1 [Example 140, N-[2-({4-[3-chloro-4-(3-fluoro-benzyloxy)-phenylamino]-quinazolin-6-yl}-ethyl-carbamoyl)-ethyl]-acrylamide] | 102 | 102 |  | 
13 | COCC(=O)NCCC(=O)Nc1ccc2ncnc(Nc3ccc(OCc4cccnc4)c(Cl)c3)c2c1 [Example 132-2, N-{4-[3-chloro-4-(pyridin-3-ylmethoxy)-phenylamino]-quinazolin-6-yl}-3-(2-methoxy-acetylamino)-propionamide] | 880 | 662 |  | 
14 | CSCC[C@H](NC(=O)CS(C)(=O)=O)C(=O)Nc1ccc2ncnc(Nc3ccc(OCc4cccc(F)c4)c(Cl)c3)c2c1 [Example 8, (2S)—N-{4-[3-chloro-4-(3-fluoro-benzyloxy)-phenylamino]-quinazolin-6-yl}-2-(2-methanesulfonyl-acetamino)-4-methanesulfanyl-butyramide] |  |  | 308 | 190
15 | C=CC(=O)N1CCC[C@H]1C(=O)Nc1ccc2ncnc(Nc3ccc(OCc4cccnc4)c(Cl)c3)c2c1 [Example 152, (2S)-1-acryloyl-pyrrolidine-2-carboxylic acid {4-[3-chloro-4-(pyridin-3-ylmethoxy)-phenylamino]-quinazolin-6-yl}-amide] | 166 | 4 |  | 
16 | C=CC(=O)N1C[C@H](O)C[C@H]1C(=O)Nc1ccc2ncnc(Nc3ccc(OCc4ccccn4)c(Cl)c3)c2c1 [Example 149, (2S,4R)-1-acryloyl-4-hydroxyl-pyrrolidine-2-carboxylic acid {4-[3-chloro-4-(pyridin-2-ylmethoxy)-phenylamino]-quinazolin-6-yl}-amide] | 54 | 2 |  | 
17 | C=CC(=O)N1CCC[C@H]1C(=O)Nc1cc2c(Nc3ccc(OCc4ccccn4)c(Cl)c3)ncnc2cc1OCC [Example 170, (2S)-1-acryloyl-pyrrolidine-2-carboxylic acid {4-[3-chloro-4-(pyridin-2-ylmethoxy)-phenylamino]-7-ethoxy-quinazolin-6-yl}-amide] | 199 | 2 |  | 
18 | C=CC(=O)N1C[C@H](OC(C)=O)C[C@H]1C(=O)Nc1ccc2ncnc(Nc3ccc(OCc4ccccn4)c(Cl)c3)c2c1 [Example 148, (3R,5S)-acetic acid 1-acryloyl-5-{4-[3-chloro-4-(pyridin-2-ylmethoxy)-phenylamino]-quinazolin-6-ylcarbamoyl}-pyrrolidin-3-ylester] | 34 | 4 |  | 
19 | (2S)-2-acryloylamino-N-{4-[3-chloro-4-(3-fluoro-benzyloxy)-phenylamino]-7-(2-methoxyethoxy)-quinazolin-6-yl}-4-methylsulfanyl-butyramide [Example 222] |  |  | 25 | 9
20 | CS(=O)(=O)CC(=O)NCCC(=O)Nc1ccc2ncnc(Nc3ccc(OCc4cccnc4)c(Cl)c3)c2c1 [Example 133, N-{4-[3-chloro-4-(pyridin-3-ylmethoxy)-phenylamino]-quinazolin-6-yl}-3-(2-methanesulfonyl-acetylamino)-propionamide] | 7260 | 1110 |  | 
